Activity calls are given as the source filed them.
Assays:
[1] = target: 1-phosphatidylinositol 4,5-bisphosphate phosphodiesterase gamma-1 (Homo sapiens, UniProt P19174); assay: Counterscreen for inhibitors of phospholipase C isozymes (PLC-B3): Fluorescence-based biochemical high throughput dose response assay to identify inhibitors of phospholipase C isozymes (PLC-gamma1).
[2] = target: Disintegrin and metalloproteinase domain-containing protein 17 (Homo sapiens, UniProt P78536); assay: ADAM17 protease inhibitors, dose response, counter-screen for ADAM10 exosite inhibitor project, biochemical, quenched FRET substrate (AID 743253)
Chain of Disintegrin and metalloproteinase domain-containing protein 17 (P78536 whole entry, the tested form may be a part): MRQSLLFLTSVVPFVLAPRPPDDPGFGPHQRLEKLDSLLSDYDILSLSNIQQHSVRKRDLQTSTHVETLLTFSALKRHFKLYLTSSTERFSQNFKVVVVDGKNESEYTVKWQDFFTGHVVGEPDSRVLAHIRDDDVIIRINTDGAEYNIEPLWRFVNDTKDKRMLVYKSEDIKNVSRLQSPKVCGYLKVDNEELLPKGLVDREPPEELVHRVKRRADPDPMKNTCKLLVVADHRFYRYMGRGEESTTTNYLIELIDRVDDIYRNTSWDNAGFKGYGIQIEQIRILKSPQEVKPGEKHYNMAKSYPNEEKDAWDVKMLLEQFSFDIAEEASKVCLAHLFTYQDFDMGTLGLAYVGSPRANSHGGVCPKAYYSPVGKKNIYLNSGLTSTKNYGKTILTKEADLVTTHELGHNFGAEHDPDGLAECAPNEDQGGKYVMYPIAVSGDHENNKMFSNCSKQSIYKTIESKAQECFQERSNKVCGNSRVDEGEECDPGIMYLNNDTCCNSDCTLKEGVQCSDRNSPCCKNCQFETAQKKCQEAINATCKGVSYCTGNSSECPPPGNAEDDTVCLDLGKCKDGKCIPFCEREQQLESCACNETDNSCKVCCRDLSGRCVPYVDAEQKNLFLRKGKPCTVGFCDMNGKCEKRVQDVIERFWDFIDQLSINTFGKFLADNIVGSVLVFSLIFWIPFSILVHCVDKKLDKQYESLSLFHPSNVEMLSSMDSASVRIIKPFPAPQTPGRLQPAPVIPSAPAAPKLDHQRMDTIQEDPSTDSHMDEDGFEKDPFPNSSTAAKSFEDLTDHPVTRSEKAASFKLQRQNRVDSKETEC

[3] = ADAM10 inhibitors, peptide cleavage, dose response, biochemical, QFRET (AID 743254);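 note: ADAM10 enzyme with the DM2 quenched FRET peptide as substrate; EDANS fluorescence gain as the protease cuts the substrate; inhibitor potency against ADAM10 proteolytic activity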
[4] = target: 1-phosphatidylinositol 4,5-bisphosphate phosphodiesterase beta-3 (Homo sapiens, UniProt Q01970); assay: Fluorescence-based biochemical high throughput dose response assay to identify inhibitors of phospholipase C isozymes (PLC-B3).
Chain of 1-phosphatidylinositol 4,5-bisphosphate phosphodiesterase beta-3 (Q01970 whole entry): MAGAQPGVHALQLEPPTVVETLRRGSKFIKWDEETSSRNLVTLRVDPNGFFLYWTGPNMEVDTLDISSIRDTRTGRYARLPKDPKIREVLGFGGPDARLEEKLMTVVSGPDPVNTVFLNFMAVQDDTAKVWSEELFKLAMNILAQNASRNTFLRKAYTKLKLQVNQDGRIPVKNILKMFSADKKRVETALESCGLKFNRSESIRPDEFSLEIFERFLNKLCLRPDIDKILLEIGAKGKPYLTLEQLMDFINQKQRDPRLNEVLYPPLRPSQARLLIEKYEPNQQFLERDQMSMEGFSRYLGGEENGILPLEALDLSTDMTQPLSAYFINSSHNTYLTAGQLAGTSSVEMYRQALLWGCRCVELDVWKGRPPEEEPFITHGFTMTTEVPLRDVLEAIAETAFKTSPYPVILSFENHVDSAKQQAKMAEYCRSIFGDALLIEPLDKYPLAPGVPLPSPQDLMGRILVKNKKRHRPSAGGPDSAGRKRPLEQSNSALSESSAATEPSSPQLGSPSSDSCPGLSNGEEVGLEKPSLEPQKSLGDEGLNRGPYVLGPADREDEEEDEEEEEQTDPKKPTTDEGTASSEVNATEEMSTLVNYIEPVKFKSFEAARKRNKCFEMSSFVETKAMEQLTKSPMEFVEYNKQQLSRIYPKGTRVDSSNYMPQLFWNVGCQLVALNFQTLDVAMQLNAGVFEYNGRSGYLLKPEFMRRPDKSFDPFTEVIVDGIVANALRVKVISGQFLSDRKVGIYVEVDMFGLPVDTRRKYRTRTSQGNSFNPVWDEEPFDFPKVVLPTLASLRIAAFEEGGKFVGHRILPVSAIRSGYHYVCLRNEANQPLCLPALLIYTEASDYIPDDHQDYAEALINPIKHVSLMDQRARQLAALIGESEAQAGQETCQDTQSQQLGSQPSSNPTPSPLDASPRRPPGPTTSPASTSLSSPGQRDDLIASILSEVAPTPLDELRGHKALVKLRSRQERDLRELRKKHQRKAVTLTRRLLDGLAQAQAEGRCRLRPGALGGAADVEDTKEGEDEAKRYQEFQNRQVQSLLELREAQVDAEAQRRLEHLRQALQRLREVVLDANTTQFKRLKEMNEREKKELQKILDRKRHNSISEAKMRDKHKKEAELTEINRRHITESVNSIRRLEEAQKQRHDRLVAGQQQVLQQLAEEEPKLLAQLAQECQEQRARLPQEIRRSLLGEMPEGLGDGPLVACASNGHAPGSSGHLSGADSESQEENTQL

[5] = HeLa 4N DNA content increase, dose response, cell-based, IC50 (AID 1117351); assay type: functional
[6] = HeLa 2N DNA content increase, dose response, cell-based, IC50 (AID 1117349); assay type: functional
[7] = RKO cell viability reduction, dose response, CellTiter-Glo luminescence (AID 1117322); assay type: functional
[8] = cytotoxicity toward HT-29 cells – cell-based, CellTiter-Glo luminescence, IC50, dose response (AID 1117330); assay type: functional
[9] = HCT116 cell viability decrease, GSK3B pretreatment – CellTiter-Glo, IC50, dose response (AID 1117339); assay type: functional; details: HCT-116
[10] = cytotoxicity toward HCT116 cells – cell-based, CellTiter-Glo luminescence, IC50, dose response (AID 1117332); assay type: functional; details: HCT-116
[11] = cytotoxicity toward Colo320 cells – cell-based, CellTiter-Glo luminescence, IC50, dose response (AID 1117334); assay type: functional; details: COLO 320
[12] = inhibitors of HIV Env-driven cell fusion, dose response, cherry-pick (AID 652057); assay type: functional, cell-based
[13] = ZM109 Env clade C HIV-1 fusion inhibitors, dose response, HeLa effector, CEM target cells, luciferase, cherry-pick (AID 652058); assay type: functional, cell-based
[14] = HepG2 cell cytotoxicity, dose response, cytotoxicity control for Shn3 inhibitor project, CellTiter-Glo, cherry-picked (AID 624134); assay type: functional, cell-based
[15] = target: COUP transcription factor 2 (Homo sapiens, UniProt P24468); assay: Luminescence-based cell-based high throughput dose response assay to identify inhibitors of COUP-TFII (NR2F2).; assay type: functional;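 note: HEK293 cells transiently cotransfected with COUP-TFII expression vector and reporter; luciferase reporter luminescence driven by COUP-TFII from the pX2-168 reporter plasmid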
Chain of COUP transcription factor 2 (P24468 whole entry): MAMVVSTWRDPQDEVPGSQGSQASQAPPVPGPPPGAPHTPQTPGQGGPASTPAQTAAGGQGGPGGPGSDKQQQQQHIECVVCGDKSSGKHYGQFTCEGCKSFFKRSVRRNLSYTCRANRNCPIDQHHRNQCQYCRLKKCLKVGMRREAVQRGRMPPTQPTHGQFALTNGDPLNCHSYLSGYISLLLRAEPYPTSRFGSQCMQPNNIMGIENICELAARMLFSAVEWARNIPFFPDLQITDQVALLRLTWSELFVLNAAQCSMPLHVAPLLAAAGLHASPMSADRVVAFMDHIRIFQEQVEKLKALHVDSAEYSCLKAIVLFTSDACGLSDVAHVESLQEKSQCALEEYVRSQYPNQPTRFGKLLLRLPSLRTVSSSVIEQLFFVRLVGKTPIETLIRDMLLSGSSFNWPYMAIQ

HEK293 [16] = assay: inhibitors of LMP1-driven NF-kB reporter, dose response, cell-based, HEK293, luciferase, cherry-pick (AID 588343); assay type: functional; details: Homo sapiens
[17] = inhibitors of clade B AD8 Env fusion, dose response, cell-based, cherry-pick (AID 652062); assay type: functional;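 note: luciferase signal from cell-cell fusion driven by HIV-1 clade B AD8 Env; potency is for inhibitors of fusion seen as a drop in luminescence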
[18] = Shn3 3'UTR reporter inhibitors, dose response, cell-based, Clone20 osteoblasts, firefly luciferase, cherry-picked (AID 624132); assay type: functional;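 note: firefly luciferase luminescence from reporter carrying the Shn3 3'UTR in osteoblasts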
[19] = control 3'UTR Renilla luciferase suppression, dose response, counter-screen for Shn3 inhibitor project, cell-based, Clone20-Shn3RL, cherry-picked (AID 624133); assay type: functional
[20] = off-target signal loss in HeLa-CEM21 co-culture – HeLa F-luc CTL cells, cherry-picked, counter-screen for HIV-1 Env fusion inhibitor project, dose response (AID 652040); assay type: functional, cell-based;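 note: potency for signal decrease marking cytotoxic or nonspecific inhibition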
[21] = A549 cell cytotoxicity, dose response, cytotoxicity control, plate reader, cherry-pick, antagonist series (AID 743412); assay type: functional, cell-based
[22] = HepG2 cell cytotoxicity, dose response, cytotoxicity control, plate reader, cherry-pick, antagonist series (AID 743416); assay type: functional, cell-based
INS1 = assay: beta cell apoptosis inhibitors, cytokine rescue, dose response, luminescence, retest (AID 449756); assay type: functional, cell-based; details: Rattus norvegicus;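 note: cell death triggered by IL-1 beta plus TNF-alpha plus IFN-gamma mixture; protective hits raise ATP signal compared with cytokine alone wells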
[23] = LGR2 antagonists, dose response, cell-based, HEK293, CRE-luciferase reporter, cherry pick, set 2 (AID 743343); assay type: functional;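 note: transfected cells were stimulated with diluted bursicon conditioned medium after compound addition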
[24] = HEK293 cell cytotoxicity, dose response, cytotoxicity control, plate reader, cherry-picked samples (AID 743446); assay type: functional, cell-based
cells [25] = assay type: functional, cell-based
[26] = target: T1, Trace amine-associated receptor 1 (Homo sapiens, UniProt Q96RJ0); assay: Fluorescence-based cell-based high throughput dose response assay to identify agonists of the human trace amine associated receptor 1 (TAAR1).; assay type: functional
T1 sequence (Q96RJ0 whole entry): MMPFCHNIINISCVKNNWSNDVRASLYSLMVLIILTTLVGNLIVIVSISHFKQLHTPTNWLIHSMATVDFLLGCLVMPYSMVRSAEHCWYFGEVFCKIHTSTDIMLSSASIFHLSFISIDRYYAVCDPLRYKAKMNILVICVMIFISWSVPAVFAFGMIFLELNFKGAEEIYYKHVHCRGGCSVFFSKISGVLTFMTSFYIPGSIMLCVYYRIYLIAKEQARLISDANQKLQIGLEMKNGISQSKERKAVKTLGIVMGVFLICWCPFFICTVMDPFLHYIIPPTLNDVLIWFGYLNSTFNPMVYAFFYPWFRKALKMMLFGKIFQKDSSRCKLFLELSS

[27] = target: T1, Trace amine-associated receptor 1; assay: Counterscreen for agonists of the human trace amine associated receptor 1 (hTAAR1): Fluorescence-based cell-based high throughput dose response assay to identify hTAAR1 agonist that also desensitize TAAR1 receptor response.; assay type: functional
cells [28] = assay type: functional, cell-based; remark: listed apart in the source
HEK293 [29] = assay: cells; details: Homo sapiens
HEK293 [30] = assay: cells; details: Homo sapiens; remark: listed apart in the source
[31] = CEM21 lymphoblast cell cytotoxicity, dose response, cytotoxicity control for viral fusion inhibitor project, CellTiter-Glo luminescence, cherry-picked (AID 652042); assay type: functional, cell-based;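 note: potency for signal decrease meaning cytotoxicity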
[32] = T. cruzi growth inhibition in host cells, dose response, cell-based, plate reader, dry powder, set 2 (AID 652275); assay type: functional
[33] = target: NAD-dependent protein deacylase sirtuin-5, mitochondrial (Homo sapiens, UniProt Q9NXA8); assay: SIRT5 desuccinylase inhibitors, dose response, biochemical, fluorescence imaging, cherry-pick, set 5 (AID 720591);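 note: desuccinylation of succinyl peptide AMC substrate read as fluorescence after trypsin release; potency of inhibitors that lower fluorescence and may act on trypsin instead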
Chain of NAD-dependent protein deacylase sirtuin-5, mitochondrial (Q9NXA8 whole entry): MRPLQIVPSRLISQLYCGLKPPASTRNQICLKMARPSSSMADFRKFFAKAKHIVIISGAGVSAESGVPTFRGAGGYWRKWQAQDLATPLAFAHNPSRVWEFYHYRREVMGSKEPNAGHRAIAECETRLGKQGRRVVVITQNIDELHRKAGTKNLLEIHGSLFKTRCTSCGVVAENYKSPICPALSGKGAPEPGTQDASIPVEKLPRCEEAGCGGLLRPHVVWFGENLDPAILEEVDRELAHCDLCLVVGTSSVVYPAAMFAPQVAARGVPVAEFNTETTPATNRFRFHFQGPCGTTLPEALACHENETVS

Chain of 1-phosphatidylinositol 4,5-bisphosphate phosphodiesterase gamma-1 (P19174 whole entry, the tested form may be a part): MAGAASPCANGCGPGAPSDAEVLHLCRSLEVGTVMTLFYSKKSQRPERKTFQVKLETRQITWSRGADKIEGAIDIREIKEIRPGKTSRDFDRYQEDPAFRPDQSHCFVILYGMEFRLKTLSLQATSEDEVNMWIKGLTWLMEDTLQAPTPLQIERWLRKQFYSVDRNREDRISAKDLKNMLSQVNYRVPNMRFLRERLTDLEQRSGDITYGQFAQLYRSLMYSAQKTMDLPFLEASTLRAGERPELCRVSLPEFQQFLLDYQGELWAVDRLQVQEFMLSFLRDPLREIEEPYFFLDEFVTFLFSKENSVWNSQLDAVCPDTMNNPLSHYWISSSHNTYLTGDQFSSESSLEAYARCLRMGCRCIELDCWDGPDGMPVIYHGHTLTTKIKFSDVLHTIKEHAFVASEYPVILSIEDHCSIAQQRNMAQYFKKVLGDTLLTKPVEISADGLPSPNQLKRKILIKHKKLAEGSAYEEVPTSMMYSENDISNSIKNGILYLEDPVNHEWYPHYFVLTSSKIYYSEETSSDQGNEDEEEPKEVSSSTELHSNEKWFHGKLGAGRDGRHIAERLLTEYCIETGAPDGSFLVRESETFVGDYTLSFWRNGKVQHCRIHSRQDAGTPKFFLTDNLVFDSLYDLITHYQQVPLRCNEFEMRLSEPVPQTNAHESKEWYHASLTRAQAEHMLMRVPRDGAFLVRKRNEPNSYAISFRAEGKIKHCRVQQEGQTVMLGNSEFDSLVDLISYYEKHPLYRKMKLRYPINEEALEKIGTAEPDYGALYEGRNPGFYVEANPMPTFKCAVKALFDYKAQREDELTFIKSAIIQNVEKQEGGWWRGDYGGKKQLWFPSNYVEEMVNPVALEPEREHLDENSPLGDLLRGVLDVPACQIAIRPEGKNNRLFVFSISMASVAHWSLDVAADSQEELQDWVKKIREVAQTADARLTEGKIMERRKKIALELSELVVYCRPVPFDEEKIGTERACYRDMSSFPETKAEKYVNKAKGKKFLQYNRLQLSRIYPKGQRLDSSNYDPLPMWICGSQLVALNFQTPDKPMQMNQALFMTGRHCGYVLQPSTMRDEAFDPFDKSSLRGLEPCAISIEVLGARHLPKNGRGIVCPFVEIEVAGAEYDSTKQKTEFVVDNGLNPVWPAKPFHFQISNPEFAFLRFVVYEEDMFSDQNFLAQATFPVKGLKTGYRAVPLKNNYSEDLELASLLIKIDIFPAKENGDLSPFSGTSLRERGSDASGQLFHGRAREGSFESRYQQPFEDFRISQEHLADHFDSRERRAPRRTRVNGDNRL

CN1C(=O)c2cc(NS(=O)(=O)c3ccc(F)cc3)ccc2OC[C@H]2O[C@@H](CC(=O)NCC(F)(F)F)CC[C@@H]21
IC50 [1]: 45.1 µM (inactive)
IC50 [2]: > 69.6 µM (inactive)
IC50 [3]: > 69.6 µM (inactive)
IC50 [4]: 47.2 µM (inactive)

COc1cccc2c1C(=O)c1c(O)c3c(c(O)c1C2=O)C[C@@](O)(C(=O)CO)C[C@@H]3O[C@H]1C[C@H](N)[C@H](O[C@@H]2CCCCO2)[C@H](C)O1 [PIRARUBICIN]
IC50 [5]: 0.0806 µM (active)
IC50 [6]: 0.0795 µM (active)
IC50 [7]: 1.01 µM (active)
IC50 [8]: > 20 µM (inactive)
IC50 [9]: 1.28 µM (active)
IC50 [10]: 0.911 µM (active)
IC50 [11]: 2.01 µM (active)

COc1ccc(CNc2ncnc3ccccc23)cc1
AC50 [12]: 36.2 µM (active)
AC50 [13]: 24.9 µM (active)
AC50 [14]: 3.67 µM (active)
IC50 [15]: 10.7 µM (inactive)
AC50 (HEK293 [16]): 33.1 µM (active)
AC50 [17]: 5.24 µM (active)
AC50 [18]: 0.674 µM (active)
AC50 [19]: 5.4 µM (active)
AC50 [20]: > 70 µM (inactive)

CC(=O)c1ccc(Nc2cc(C)nc3c(C)cc(C)cc23)cc1
AC50 [21]: 2.54 µM (active)
AC50 [22]: 1.9 µM (active)
AC50 (INS1): 5.22 µM (active)
AC50 [23]: 40.3 µM (active)
AC50 [24]: 23.9 µM (active)

COc1ccc2cc(CN(CCc3ccccc3)Cc3nnnn3CC3CCCO3)c(O)nc2c1 (stereo not drawn)
EC50 (cells [25]): > 29.9 µM (inactive)
EC50 [26]: 4.42 µM (active)
IC50 [27]: 8.83 µM (active)
IC50 (cells [28]): > 29.9 µM (inactive)

CC(=O)Nc1ccc(N(CC(O)Cn2c3ccccc3c3ccccc32)S(=O)(=O)c2ccc(C)cc2)cc1 (stereo not drawn)
AC50 [12]: 0.507 µM (active)
AC50 [13]: 0.558 µM (active)
EC50 (HEK293 [29]): > 59.7 µM (inactive)
EC50 (HEK293 [30]): > 59.7 µM (inactive)
AC50 [31]: 28.4 µM (active)
AC50 [17]: 2.8 µM (active)
AC50 [20]: 1.6 µM (active)

CC(C)N1C[C@H](CNCc2ccc(Cl)cc2)Oc2c(NC(=O)c3ccncc3)cccc2C1=O
AC50 [32]: 0.731 µM (active)

CC(C)(C)NC(=O)CSc1nc2cccnc2n1C1CCCCC1
AC50 [33]: > 30 µM (inactive)
